Results on 6 molecules are retold here after the NIST ThermoML archive (doi:10.1016/j.jct.2012.06.028).

Numbers after ± are expanded uncertainties.

The conditions of data set [1]: 298.15 K; 101.33 kPa; Liquid; Vibrating tube method.
The nature of data set [2]: refractive index (Na D-line) (dimensionless). As to conditions: 298.15 K; 101.33 kPa; Liquid; Standard Abbe refractometry.

As a reminder, the mass density is the mass of a sample divided by its volume. As usually defined, the refractive index is the speed of light in vacuum divided by its phase velocity in the sample. For the molecule `CCCC[n+]1cccc(C)c1.O=S(=O)([N-]S(=O)(=O)C(F)(F)F)C(F)(F)F`, the mass density in data set [1] is given as 1414.76 ± 0.6 kg/m3. Also, the refractive index in data set [2] is reported as 1.44595 ± 0.0007.

Take `CCCCCC` [hexane]: in data set [1], the mass density is reported as 655.2 ± 0.26 kg/m3. Besides, the refractive index in data set [2] is listed as 1.37241 ± 0.0007.

In the case of `CCCC[n+]1ccn(C)c1.O=S(=O)([N-]S(=O)(=O)C(F)(F)F)C(F)(F)F`, in data set [1], the mass density is 1436.1 ± 0.62 kg/m3. Moreover, the refractive index in data set [2] is recorded as 1.42672 ± 0.0007.

Turning to `CCn1cc[n+](C)c1.O=S(=O)([N-]S(=O)(=O)C(F)(F)F)C(F)(F)F`, the mass density in data set [1] was 1518.74 ± 0.7 kg/m3. The refractive index in data set [2] stood at 1.42307 ± 0.0007.

Turning to `CCCC[n+]1cccc(C)c1.O=S(=O)([O-])C(F)(F)F` [1-butyl-3-methylpyridinium trifluoromethanesulfonate], the mass density in data set [1] was determined as 1279.77 ± 0.47 kg/m3. Moreover, in data set [2], the refractive index is on record as 1.46138 ± 0.0007.

Take `CCO` [ethanol]: the mass density in data set [1] is recorded as 785.44 ± 0.13 kg/m3. Moreover, the refractive index in data set [2] is reported as 1.35936 ± 0.00068.
